Measurements reported in ChEMBL document CHEMBL1201862, “PubChem BioAssay data set” (2004).
The source made the active and inactive calls.

Legend:
Leucine aminopeptidase = biological target: T1, Leucine aminopeptidase (Plasmodium falciparum 3D7, UniProt Q8IL11); assay: P. falciparum M17LAP inhibitors, primary screen, biochemical, fluorogenic H-Leu-NHMec substrate, 1536-well (AID 1619); type: functional
T1 sequence (Q8IL11 whole entry): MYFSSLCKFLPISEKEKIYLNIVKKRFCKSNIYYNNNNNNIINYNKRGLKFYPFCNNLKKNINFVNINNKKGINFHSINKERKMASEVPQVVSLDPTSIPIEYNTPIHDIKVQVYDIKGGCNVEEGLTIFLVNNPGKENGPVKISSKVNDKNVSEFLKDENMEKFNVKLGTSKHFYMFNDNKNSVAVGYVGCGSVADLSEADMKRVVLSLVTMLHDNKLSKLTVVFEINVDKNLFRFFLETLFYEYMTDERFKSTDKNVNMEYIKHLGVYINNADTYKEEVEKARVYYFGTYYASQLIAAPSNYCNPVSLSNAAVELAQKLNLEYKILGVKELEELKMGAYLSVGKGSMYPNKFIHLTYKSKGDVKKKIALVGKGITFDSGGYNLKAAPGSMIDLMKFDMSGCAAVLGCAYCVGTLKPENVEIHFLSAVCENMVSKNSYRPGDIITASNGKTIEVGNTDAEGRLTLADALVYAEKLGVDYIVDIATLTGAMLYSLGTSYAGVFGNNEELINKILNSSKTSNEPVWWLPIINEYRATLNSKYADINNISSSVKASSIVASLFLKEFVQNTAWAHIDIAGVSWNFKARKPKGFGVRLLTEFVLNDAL

[1] = biological target: T2, Histone-lysine N-methyltransferase NSD2 (Homo sapiens, UniProt O96028); type: biochemical
T2 sequence (O96028 whole entry): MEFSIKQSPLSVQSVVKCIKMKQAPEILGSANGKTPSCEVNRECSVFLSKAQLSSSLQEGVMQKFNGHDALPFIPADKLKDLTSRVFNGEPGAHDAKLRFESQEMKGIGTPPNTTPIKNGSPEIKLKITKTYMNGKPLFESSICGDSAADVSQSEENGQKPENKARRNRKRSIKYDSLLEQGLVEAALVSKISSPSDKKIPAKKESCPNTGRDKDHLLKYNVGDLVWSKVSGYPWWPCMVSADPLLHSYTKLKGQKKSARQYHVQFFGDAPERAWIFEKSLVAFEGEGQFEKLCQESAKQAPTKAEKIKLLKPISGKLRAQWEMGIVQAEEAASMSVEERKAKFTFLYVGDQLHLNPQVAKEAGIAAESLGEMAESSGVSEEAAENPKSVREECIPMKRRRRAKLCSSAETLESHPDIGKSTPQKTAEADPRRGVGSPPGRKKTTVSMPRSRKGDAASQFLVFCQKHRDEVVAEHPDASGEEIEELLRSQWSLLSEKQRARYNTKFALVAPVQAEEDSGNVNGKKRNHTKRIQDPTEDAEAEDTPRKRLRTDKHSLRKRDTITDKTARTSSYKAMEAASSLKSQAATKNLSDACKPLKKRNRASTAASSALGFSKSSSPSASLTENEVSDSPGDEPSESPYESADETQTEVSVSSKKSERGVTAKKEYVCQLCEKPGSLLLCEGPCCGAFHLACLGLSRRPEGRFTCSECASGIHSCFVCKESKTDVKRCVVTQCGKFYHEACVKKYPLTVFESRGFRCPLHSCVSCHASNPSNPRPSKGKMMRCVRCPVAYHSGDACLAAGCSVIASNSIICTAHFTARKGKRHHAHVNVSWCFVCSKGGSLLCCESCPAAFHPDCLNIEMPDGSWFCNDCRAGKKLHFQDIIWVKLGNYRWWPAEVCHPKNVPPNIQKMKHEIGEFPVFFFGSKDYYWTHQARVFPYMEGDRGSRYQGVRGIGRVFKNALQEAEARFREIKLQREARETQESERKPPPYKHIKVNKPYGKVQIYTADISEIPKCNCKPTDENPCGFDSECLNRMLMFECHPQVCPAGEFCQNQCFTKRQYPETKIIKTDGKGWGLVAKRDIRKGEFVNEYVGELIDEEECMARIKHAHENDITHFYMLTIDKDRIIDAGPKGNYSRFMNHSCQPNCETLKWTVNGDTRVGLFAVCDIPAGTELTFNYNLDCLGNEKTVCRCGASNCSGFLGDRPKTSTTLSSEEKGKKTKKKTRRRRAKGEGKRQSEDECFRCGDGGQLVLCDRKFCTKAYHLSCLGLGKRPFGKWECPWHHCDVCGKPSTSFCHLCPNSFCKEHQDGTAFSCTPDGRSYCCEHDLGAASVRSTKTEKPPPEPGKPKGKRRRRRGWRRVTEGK

Prothrombin = Prothrombin (Homo sapiens, UniProt P00734); assay: Thrombin 1536 HTS Dose Response Confirmation. [Related pubchem assays: 1046 (Thrombin 1536 HTS; hits were confirmed in this assay)]; type: functional
[2] = biological target: T3, Heat shock factor protein 1 (Mus musculus, UniProt P38532); assay: decrease of HSF1-responsive luciferase luminescence – cell-based, NIH3T3, dose retest, confirmation (AID 2382); type: functional;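 also: NIH3T3 fibroblasts with HSF1-driven luciferase reporter stressed by proteasome inhibitor MG132; luminescence from HSF1-driven luciferase expression after 8 hours of MG132 stress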
T3 sequence (P38532 whole entry): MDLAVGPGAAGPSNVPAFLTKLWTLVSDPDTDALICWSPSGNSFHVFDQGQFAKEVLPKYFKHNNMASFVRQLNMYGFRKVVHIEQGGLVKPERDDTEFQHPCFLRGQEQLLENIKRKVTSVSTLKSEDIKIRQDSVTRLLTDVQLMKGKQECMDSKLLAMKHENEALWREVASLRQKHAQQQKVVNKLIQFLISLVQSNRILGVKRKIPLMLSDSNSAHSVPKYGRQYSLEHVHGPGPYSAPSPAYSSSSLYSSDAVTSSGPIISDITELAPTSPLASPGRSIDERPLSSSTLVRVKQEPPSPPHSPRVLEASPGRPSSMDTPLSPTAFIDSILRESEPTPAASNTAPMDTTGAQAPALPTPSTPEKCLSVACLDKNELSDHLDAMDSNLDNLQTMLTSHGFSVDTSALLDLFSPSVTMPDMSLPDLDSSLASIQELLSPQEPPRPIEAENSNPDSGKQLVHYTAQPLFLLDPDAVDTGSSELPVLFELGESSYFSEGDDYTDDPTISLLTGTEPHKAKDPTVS

[3] = blockers of bursicon-stimulated LGR2 cAMP reporter – cell-based, HEK293, CRE-luciferase reporter, cherry pick, set 2, dose response (AID 743343); type: functional;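 also: transfected cells were stimulated with diluted bursicon conditioned medium after compound addition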
[4] = blockade of melanocortin 4 receptor signaling – cell-based, plate reader, cherry pick, counter-screen for LGR2 antagonist project, dose response (AID 743444); type: functional;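 also: transfected HEK 293 cells stimulated with alpha-MSH peptide; potency of inhibitors of the alpha-MSH evoked signal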
[5] = biological target: T4, Rac GTPase-activating protein 1 (Homo sapiens, UniProt Q9H0H5); assay: blockers of MgcRacGAP-driven Rac1 GTP hydrolysis – biochemical, ADP Hunter fluorescence, primary and confirmatory, confirmation (AID 624330); type: functional
T4 sequence (Q9H0H5 whole entry): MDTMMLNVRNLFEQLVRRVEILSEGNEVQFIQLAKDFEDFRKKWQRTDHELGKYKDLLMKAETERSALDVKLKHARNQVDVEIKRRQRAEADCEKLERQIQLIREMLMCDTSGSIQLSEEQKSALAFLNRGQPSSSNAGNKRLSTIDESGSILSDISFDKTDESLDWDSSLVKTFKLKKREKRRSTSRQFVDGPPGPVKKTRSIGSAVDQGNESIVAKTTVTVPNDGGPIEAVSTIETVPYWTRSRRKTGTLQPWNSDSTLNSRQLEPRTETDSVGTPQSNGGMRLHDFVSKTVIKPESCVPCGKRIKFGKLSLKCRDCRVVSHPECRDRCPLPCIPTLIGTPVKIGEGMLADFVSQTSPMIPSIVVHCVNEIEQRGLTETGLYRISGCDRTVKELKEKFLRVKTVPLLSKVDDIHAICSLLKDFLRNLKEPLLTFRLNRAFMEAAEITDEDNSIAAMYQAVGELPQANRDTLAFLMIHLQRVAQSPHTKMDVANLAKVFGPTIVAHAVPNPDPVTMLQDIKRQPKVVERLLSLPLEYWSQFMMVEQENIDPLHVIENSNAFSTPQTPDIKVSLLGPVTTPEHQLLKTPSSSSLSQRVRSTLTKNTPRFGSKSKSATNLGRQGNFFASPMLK

Paired box protein Pax-8 = Paired box protein Pax-8 (Homo sapiens, UniProt Q06710); assay: PAX8 transcriptional activity inhibition in RMG-I – RMG-I cells, luciferase, cherry-pick, dose response (AID 687027); type: functional, cell-based;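 also: luciferase reporter driven by Pax8 target thyroperoxidase promoter measured by SteadyGlo luminescence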
Sequence of Paired box protein Pax-8 (Q06710 whole entry): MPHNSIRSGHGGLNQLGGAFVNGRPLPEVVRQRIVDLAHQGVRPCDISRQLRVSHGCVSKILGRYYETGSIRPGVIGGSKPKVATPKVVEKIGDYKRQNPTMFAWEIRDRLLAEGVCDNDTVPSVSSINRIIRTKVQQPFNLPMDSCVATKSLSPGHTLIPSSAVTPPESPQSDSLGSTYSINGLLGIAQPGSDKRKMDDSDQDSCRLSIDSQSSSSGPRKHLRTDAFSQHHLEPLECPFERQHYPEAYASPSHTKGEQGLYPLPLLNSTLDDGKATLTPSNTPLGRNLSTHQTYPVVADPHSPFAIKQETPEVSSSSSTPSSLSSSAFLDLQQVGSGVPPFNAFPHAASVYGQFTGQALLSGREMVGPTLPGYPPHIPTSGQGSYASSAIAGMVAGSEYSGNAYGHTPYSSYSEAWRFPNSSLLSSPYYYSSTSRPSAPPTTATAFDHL

[6] = OVCAR-3 cell viability loss – plate reader, dry powder samples, PAX8 inhibitor project, dose response (AID 743044); type: functional, cell-based
Protein skinhead-1 = biological target: T5, Protein skinhead-1 (Caenorhabditis elegans, UniProt P34707); type: functional
T5 sequence (P34707 whole entry): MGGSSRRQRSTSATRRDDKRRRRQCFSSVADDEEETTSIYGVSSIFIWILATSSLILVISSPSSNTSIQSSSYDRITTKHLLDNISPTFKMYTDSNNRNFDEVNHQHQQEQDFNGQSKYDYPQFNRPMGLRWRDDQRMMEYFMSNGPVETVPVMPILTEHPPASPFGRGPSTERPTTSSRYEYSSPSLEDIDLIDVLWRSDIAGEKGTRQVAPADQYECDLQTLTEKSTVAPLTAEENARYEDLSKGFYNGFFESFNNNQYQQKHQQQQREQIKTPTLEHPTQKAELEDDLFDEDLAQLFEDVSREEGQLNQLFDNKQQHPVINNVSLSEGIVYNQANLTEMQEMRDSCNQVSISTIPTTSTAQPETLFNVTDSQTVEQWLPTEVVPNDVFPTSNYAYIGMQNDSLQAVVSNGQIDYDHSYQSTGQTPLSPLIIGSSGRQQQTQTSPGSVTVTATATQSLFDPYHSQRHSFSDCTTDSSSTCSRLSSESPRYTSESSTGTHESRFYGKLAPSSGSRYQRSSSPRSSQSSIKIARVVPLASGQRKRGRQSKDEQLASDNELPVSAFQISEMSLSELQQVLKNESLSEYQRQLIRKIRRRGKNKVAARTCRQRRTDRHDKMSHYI

Compound: CCCCCOc1ccc(NC(=O)CCCC(=O)O)cc1
- IC50 (Leucine aminopeptidase): 11.3 µM (active)

Compound: COc1cccc(=O)c2c(C)n(-c3ccc(C(=O)O)cc3)c(C)c12
- AC50 [1]: > 20 µM (inactive)

Compound: COc1ccccc1N1CCN(C(=O)CNC(=O)c2cn(-c3ccccc3OC)c(=O)c3ccccc23)CC1
- IC50 (Prothrombin): 9.56 µM (active)

Compound: Cc1cc(C(=O)COC(=O)C2CC2)c(C)n1-c1ccc(F)cc1
- EC50 [2]: 1.96 µM (active)
- AC50 [3]: 585 nM (active)
- AC50 [4]: 334 nM (active)

Compound: CCS(=O)(=O)C1=NN2C(=N)/C(=C\c3ccc(O)c(OC)c3)C(=O)N=C2S1
- IC50 (Leucine aminopeptidase): 35.2 µM (active)
- IC50 [5]: 37.2 µM (active)

Compound: CCCOP(=O)(c1ccc(N(C)C)cc1)C(O)c1ccncc1 (configuration not stated)
- IC50 (Prothrombin): > 50 µM (not active)

Compound: Cc1ccc(C)c(NC(=O)C2CC=CCC2C(=O)O)c1 (configuration not stated)
- IC50 (Leucine aminopeptidase): 18.6 µM (active)

Compound: Cc1ccc(C(=O)CSc2nc(C)cc(C)c2C(N)=O)cc1
- IC50 (Prothrombin): > 50 µM (not active)

Compound: O=C1C(=O)N(CCS(=O)(=O)c2ccccc2)c2ccc(F)cc21
- AC50 [1]: 8.09 µM (active)

Compound: Cc1ccc(S(=O)(=O)N(C)C[C@@H]2Oc3cc(C#Cc4ccncc4)ccc3S(=O)(=O)N([C@H](C)CO)C[C@@H]2C)cc1
- AC50 (Paired box protein Pax-8): 6.03 µM (active)
- AC50 [6]: 22.4 µM (active)

Compound: C/C(=N\NC(=S)NC1CCCCC1)c1cccc(Br)c1
- IC50 (Prothrombin): > 50 µM (inconclusive)

Compound: CSc1nc(-c2ccco2)nn1C(=O)c1ccc(C)cc1
- IC50 (Prothrombin): 0.16 µM (active)
- IC50 (Protein skinhead-1): > 100 µM (inactive)
